Source: patent publication US5474984A, “Horseshoe crab amebocyte lysate factor G activation inhibitor” (priority 1988, dated 1995)

Assays:
factor G fraction of LAL = target: T1, factor G fraction of LAL (Tachypleus tridentatus, UniProt Q27082); assay: Method of measuring the titer of the activity of a factor G activation inhibitor (GI); assay type: biochemical, T. tridentatus; settings: 10 pg factor G activating substance (sample No. 106), 37° C. 30 minutes; 100% inhibition = 100 units
T1 construct: Prepared from horseshoe crab, T. tridentatus; from tissue; host or cells: horseshoe crab amebocyte lysate (LAL), factor G fraction
T1 sequence (Q27082 20-673): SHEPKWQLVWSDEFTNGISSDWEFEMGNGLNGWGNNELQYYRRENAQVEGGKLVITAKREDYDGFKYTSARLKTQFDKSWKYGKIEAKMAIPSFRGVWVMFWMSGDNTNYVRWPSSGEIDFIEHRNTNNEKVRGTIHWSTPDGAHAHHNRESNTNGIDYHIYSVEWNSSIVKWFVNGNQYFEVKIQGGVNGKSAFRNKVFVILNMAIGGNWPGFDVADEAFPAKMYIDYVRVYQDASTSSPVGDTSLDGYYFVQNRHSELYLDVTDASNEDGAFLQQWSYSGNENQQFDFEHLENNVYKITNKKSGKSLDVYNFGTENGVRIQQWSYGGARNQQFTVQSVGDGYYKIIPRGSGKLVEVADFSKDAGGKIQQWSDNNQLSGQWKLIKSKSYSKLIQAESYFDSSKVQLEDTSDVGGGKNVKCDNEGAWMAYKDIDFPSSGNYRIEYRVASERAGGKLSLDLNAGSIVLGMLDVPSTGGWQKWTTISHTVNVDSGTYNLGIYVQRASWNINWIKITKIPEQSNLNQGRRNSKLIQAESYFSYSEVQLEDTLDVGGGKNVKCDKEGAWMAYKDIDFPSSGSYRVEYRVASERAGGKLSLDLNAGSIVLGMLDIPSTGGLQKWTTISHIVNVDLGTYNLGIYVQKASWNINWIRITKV
T1 sequence (Q27083 32-309 partner): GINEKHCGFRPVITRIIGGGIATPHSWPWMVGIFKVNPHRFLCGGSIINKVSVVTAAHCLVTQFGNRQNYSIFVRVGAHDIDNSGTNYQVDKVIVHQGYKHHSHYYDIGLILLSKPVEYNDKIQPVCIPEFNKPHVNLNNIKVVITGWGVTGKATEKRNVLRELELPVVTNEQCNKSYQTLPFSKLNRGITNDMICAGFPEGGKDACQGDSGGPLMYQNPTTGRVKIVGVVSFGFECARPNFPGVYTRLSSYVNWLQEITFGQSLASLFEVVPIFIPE
Method: The factor G activation inhibiting titer was measured by the "method of measuring the titer of the activity of a factor G activation inhibitor" described below and expressed in units/mg.
Method of measuring the titer of the activity of a factor G activation inhibitor (sometimes abbreviated as GI):
Two hundred microliters of the reaction mixture contained the following materials. […]
The above reaction mixture was incubated at 37° C. for 30 minutes, and 0.5 ml each of 0.04% sodium nitrite (0.48M HCl solution), 0.3% ammonium sulfamate, and 0.07% N-(1-naphthyl)ethylenediamine dihydrochloride were successively added, and its color was changed by diazo coupling. The amount of pNA liberated was measured as the absorbance at 545 nm (A545).
The GI activity was calculated from the following equation. [formula]
The amount of GI which inhibited activation of factor G by GA under these conditions to an extent of 100% is defined as 100 units.
A sample which is water-insoluble is used after it is dissolved in 0.3M NaOH, and neutralized with an equal volume of 0.3M HCl.
A GPC fractionated pure sample of the sonicated product of Curdlan which was prepared in Preparation Example 5 (Table 2, sample No. 106 having a molecular weight of 216,000).
Prepared from horseshoe crab, T. tridentatus, inhabiting the coast of Japan in accordance with the method described in T. Obayashi et al., Clin. Chim. Acta, 149, 55-65 (1985).

factor G [1] = target: T2, factor G (Tachypleus tridentatus, UniProt Q27082); assay: Operating mechanism experiment: inhibition of the factor G pathway with varied sequence of addition; assay type: biochemical, horseshoe crab; settings: 5 micrograms inhibitor
T2 construct: prepared from LAL by the method described in T. Obayashi et al; from tissue; host or cells: horseshoe crab amebocyte lysate (LAL), factor G fraction
T2 sequence (Q27082 20-673): T1 sequence (Q27082 20-673)
T2 sequence (Q27083 32-309 partner): T1 sequence (Q27083 32-309 partner)
Source text: (§1) A reaction mixture of the following composition was used. Two hundred microliters of the reaction mixture contained 5 micrograms of a factor G activation inhibitor (laminariheptaose; sample No. 10; abbreviated as I), 3 pg of a factor G activating substance (GPC fraction of sonicated Curdlan; sample No. 106; abbreviated as A), 20 microliters of a factor G fraction (abbreviated as G) and 30 microliters of a proclotting enzyme fraction (abbreviated as P) prepared from LAL by the method described in T. Obayashi et al., Clin. Chim. Acta, 149, 55-65 (1985), 20 μmoles of Tris-HCl buffer (pH 8.0), 20 μmoles of MgCl2 and 0.13 μmole of a chromogenic substrate Boc-Leu-Gly-Arg-pNA (abbreviated as S).
(§2) In each of Runs 1 to 5, the sequence of adding the ingredients and the incubating conditions were varied, and the degree of inhibition of the factor G pathway was measured and determined in comparison with a control in which no inhibitor was added.

factor G [2] = assay: as above; assay type: biochemical, horseshoe crab; settings: factor G activated by A before inhibitor
Source text: as §1, §2

Row | Compound | Factor G activation inhibiting titer (factor G fraction of LAL) | also measured
1 | OC[C@H]1OC(O)[C@H](O)[C@@H](O)[C@@H]1O (stereo partly drawn) [compound 108, Glucose, reference compound] | < 100 units/mg | –
2 | OC[C@H]1O[C@@H](O[C@H]2[C@H](O)[C@@H](CO)OC(O)[C@@H]2O)[C@H](O)[C@@H](O)[C@@H]1O (stereo partly drawn) [compound 5, Laminasiribose] | 214 units/mg | –
3 | OC[C@H]1O[C@@H](O[C@@H]2[C@@H](O)[C@H](O[C@H]3[C@H](O)[C@@H](CO)OC(O)[C@@H]3O)O[C@H](CO)[C@H]2O)[C@H](O)[C@@H](O)[C@@H]1O (stereo partly drawn) [compound 6, Laminaritriose] | 4,670 units/mg | –

The next lines start with results.

Row | Factor G activation inhibiting titer (factor G fraction of LAL) | Compound | also measured
4 | 103,000 units/mg | OCC1OC(OC2C(O)C(CO)OC(OC3C(O)C(CO)OC(OC4C(O)C(CO)OC(OC5C(O)C(CO)OC(OC6C(O)C(CO)OC(OC7C(O)C(O)OC(CO)C7O)C6O)C5O)C4O)C3O)C2O)C(O)C(O)C1O (stereo not drawn) [compound 10, Laminariheptaose] | Inhibition rate (%) to the control (factor G [1]; Run 1 (sequence of addition drawing 11), 3 pg activating substance sample No. 106): 100%; Inhibition rate (%) to the control (factor G [1]; Run 2 (sequence drawing 12), 3 pg activating substance): 100%; Inhibition rate (%) to the control (factor G [1]; Run 3 (sequence drawing 13), 3 pg activating substance): 100%; Inhibition rate (%) to the control (factor G [2]; Run 4 (sequence drawing 14)): 1.7%; Inhibition rate (%) to the control (factor G [2]; Run 5 (sequence drawing 15)): 0%
5 | 39,800 units/mg | OC[C@H]1O[C@@H](O[C@@H]2[C@@H](O)[C@H](O[C@@H]3[C@@H](O)[C@H](O[C@@H]4[C@@H](O)[C@H](O[C@H]5[C@H](O)[C@@H](CO)OC(O)[C@@H]5O)O[C@H](CO)[C@H]4O)O[C@H](CO)[C@H]3O)O[C@H](CO)[C@H]2O)[C@H](O)[C@@H](O)[C@@H]1O (stereo partly drawn) [compound 8, Laminaripentaose] | –
6 | 55,000 units/mg | OC[C@H]1O[C@@H](O[C@@H]2[C@@H](O)[C@H](O[C@@H]3[C@@H](O)[C@H](O[C@@H]4[C@@H](O)[C@H](O[C@@H]5[C@@H](O)[C@H](O[C@H]6[C@H](O)[C@@H](CO)OC(O)[C@@H]6O)O[C@H](CO)[C@H]5O)O[C@H](CO)[C@H]4O)O[C@H](CO)[C@H]3O)O[C@H](CO)[C@H]2O)[C@H](O)[C@@H](O)[C@@H]1O (stereo partly drawn) [compound 9, Laminarihexaose] | –
7 | 20,000 units/mg | OC[C@H]1O[C@@H](O[C@@H]2[C@@H](O)[C@H](O[C@@H]3[C@@H](O)[C@H](O[C@H]4[C@H](O)[C@@H](CO)OC(O)[C@@H]4O)O[C@H](CO)[C@H]3O)O[C@H](CO)[C@H]2O)[C@H](O)[C@@H](O)[C@@H]1O (stereo partly drawn) [compound 7, Laminaritetraose] | –
